Laboratory results: patent US10246422B2, “Heterocyclic compounds and use thereof in medicine and in cosmetics” (GALDERMA RESEARCH & DEVELOPMENT, priority 2014, dated 2019)

Experiment: Metabolic stability in the presence of human hepatic microsomes
Format: in vitro ADME
Conditions: compound 1 μM (DMSO 0.1%), microsomal protein 0.5 mg/mL, LC/MS/MS
Procedure: This is illustrated more particularly by the test of metabolic stability in the presence of human hepatic microsomes presented below.
Human hepatic microsomes (Becton Dickinson) are incubated at a protein concentration of 0.5 mg/mL in the reaction mixture.
The reaction mixture of the microsomes consists of phosphate buffer pH: 7.4 at 100 mM, MgCl2 at 100 mM (50/50), a system for generating […] consisting of a mixture of nicotinamide adenine […] (NADP), glucose-6-phosphate (G6P) at 1 mg/mL and glucose-6-phosphate dehydrogenase (G6PDH) at 4 U/mL. The compounds are tested at 1 μM (DMSO 0.1%).
The samples are taken from the incubation medium after adding the microsomes, at time 15 minutes. The metabolic reaction is stopped by adding methanol (1 volume incubation medium/3 volumes of methanol). The percentage of the parent product remaining after 15 minutes is measured by LC/MS/MS analysis.

| % of product remaining at 15 min (human hepatic microsomes) [%] | SMILES |
| --- | --- |
| 8 | COc1c(C)cccc1-c1cn(CC(=O)N2CCC(N3CCc4ccccc4NC3=O)CC2)c(=O)n(C)c1=O [Compound 25, 5-(2-methoxy-3-methylphenyl)-3-methyl-1-{2-oxo-2-[4-(2-oxo-1,2,4,5-tetrahydro-benzo[d][1,3]diazepin-3-yl)-piperidin-1-yl]-ethyl}-1H-pyrimidine-2,4-dione] |
| 16 | Cc1cccc(-c2cn(CC(=O)N3CCC(N4CCc5ccccc5NC4=O)CC3)c(=O)n(C)c2=O)c1C [Compound 30, 5-(2,3-dimethylphenyl)-3-methyl-1-{2-oxo-2-[4-(2-oxo-1,2,4,5-tetrahydro-benzo[d][1,3]diazepin-3-yl)-piperidin-1-yl]-ethyl}-1H-pyrimidine-2,4-dione] |
| 45 | CC(C)n1c(=O)c(-c2cccc(F)c2Cl)cn(CC(=O)N2CCC(N3CCc4ccccc4NC3=O)CC2)c1=O [Compound 63, 5-(2-chloro-3-fluorophenyl)-3-isopropyl-1-{2-oxo-2-[4-(2-oxo-1,2,4,5-tetrahydro-benzo[d][1,3]diazepin-3-yl)-piperidin-1-yl]-ethyl}-1H-pyrimidine-2,4-dione] |
| 1 | COC[C@@H](C)n1c(=O)c(-c2cccc(F)c2Cl)cn(CC(=O)N2CCC(N3CCc4ccccc4NC3=O)CC2)c1=O [Compound 110, 5-(2-chloro-3-fluorophenyl)-3-((R)-2-methoxy-1-methylethyl)-1-{2-oxo-2-[4-(2-oxo-1,2,4,5-tetrahydro-benzo[d][1,3]diazepin-3-yl)-piperidin-1-yl]-ethyl}-1H-pyrimidine-2,4-dione] |
| 0 | CSCCn1c(=O)c(-c2cccc(F)c2Cl)cn(CC(=O)N2CCC(N3CCc4ccccc4NC3=O)CC2)c1=O [Compound 112, 5-(2-chloro-3-fluorophenyl)-3-(2-methylsulphanyl-ethyl)-1-{2-oxo-2-[4-(2-oxo-1,2,4,5-tetrahydro-benzo[d][1,3]diazepin-3-yl)-piperidin-1-yl]-ethyl}-1H-pyrimidine-2,4-dione] |
| 41 | COC(=O)CCn1c(=O)c(-c2cccc(F)c2Cl)cn(CC(=O)N2CCC(N3CCc4ccccc4NC3=O)CC2)c1=O [Compound 114, 3-(5-(2-chloro-3-fluorophenyl)-2,6-dioxo-3-{2-oxo-2-[4-(2-oxo-1,2,4,5-tetrahydro-benzo[d][1,3]diazepin-3-yl)-piperidin-1-yl]-ethyl}-3,6-dihydro-2H-pyrimidin-1-yl)-methyl propionate] |
| 0 | COc1ccc2c(c1)CCN(C1CCN(C(=O)Cn3cc(-c4cccc(F)c4Cl)c(=O)n([C@@H](C)CNC(C)=O)c3=O)CC1)C(=O)N2 [Compound 115, N—[(S)-2-(5-(2-chloro-3-fluorophenyl)-3-{2-[4-(7-methoxy-2-oxo-1,2,4,5-tetrahydro-benzo[d][1,3]diazepin-3-yl)-piperidin-1-yl]-2-oxo-ethyl}-2,6-dioxo-3,6-dihydro-2H-pyrimidin-1-yl)-propyl]acetamide] |
| 1 | COc1ccc2c(c1)CCN(C1CCN(C(=O)Cn3cc(-c4cccc(F)c4Cl)c(=O)n([C@@H](C)CNS(C)(=O)=O)c3=O)CC1)C(=O)N2 [Compound 120, N—[(S)-2-(5-(2-chloro-3-fluorophenyl)-3-{2-[4-(7-methoxy-2-oxo-1,2,4,5-tetrahydro-benzo[d][1,3]diazepin-3-yl)-piperidin-1-yl]-2-oxo-ethyl}-2,6-dioxo-3,6-dihydro-2H-pyrimidin-1-yl)-propyl]-methanesulphonamide] |
| 65 | COc1ccc2c(c1)CCN(C1CCN(C(=O)Cn3cc(-c4cccc(F)c4Cl)c(=O)n([C@@H](C)CS(C)(=O)=O)c3=O)CC1)C(=O)N2 [Compound 142, 5-(2-chloro-3-fluorophenyl)-3-((S)-2-methanesulphonyl-1-methylethyl)-1-{2-[4-(7-methoxy-2-oxo-1,2,4,5-tetrahydro-benzo[d][1,3]diazepin-3-yl)-piperidin-1-yl]-2-oxo-ethyl}-1H-pyrimidine-2,4-dione] |
| 42 | COc1ccc2c(c1)CCN(C1CCN(C(=O)Cn3cc(-c4cccc(F)c4Cl)c(=O)n([C@H](C)CS(C)(=O)=O)c3=O)CC1)C(=O)N2 [Compound 143, 5-(2-chloro-3-fluorophenyl)-3-((R)-2-methanesulphonyl-1-methylethyl)-1-{2-[4-(7-methoxy-2-oxo-1,2,4,5-tetrahydro-benzo[d][1,3]diazepin-3-yl)-piperidin-1-yl]-2-oxo-ethyl}-1H-pyrimidine-2,4-dione] |
| 26 | COc1ccc2c(c1)CCN(C1CCN(C(=O)Cn3cc(-c4cccc(OC)c4F)c(=O)n(C(C)C)c3=O)CC1)C(=O)N2 [Compound 149, 5-(2-fluoro-3-methoxyphenyl)-3-isopropyl-1-{2-[4-(7-methoxy-2-oxo-1,2,4,5-tetrahydro-benzo[d][1,3]diazepin-3-yl)-piperidin-1-yl]-2-oxo-ethyl}-1H-pyrimidine-2,4-dione] |
| 0 | COc1ccc2c(c1)CCN(C1CCN(C(=O)Cn3cc(-c4ccccc4OC(F)(F)F)c(=O)n(C(C)C)c3=O)CC1)C(=O)N2 [Compound 150, 3-isopropyl-1-{2-[4-(7-methoxy-2-oxo-1,2,4,5-tetrahydro-benzo[d][1,3]diazepin-3-yl)-piperidin-1-yl]-2-oxo-ethyl}-5-(2-trifluoromethoxyphenyl)-1H-pyrimidine-2,4-dione] |
| 0 | CCC(=O)NC[C@H](C)n1c(=O)c(-c2cccc(F)c2Cl)cn(CC(=O)N2CCC(N3CCc4cc(OC)ccc4NC3=O)CC2)c1=O [Compound 158, N—[(S)-2-(5-(2-chloro-3-fluorophenyl)-3-{2-[4-(7-methoxy-2-oxo-1,2,4,5-tetrahydro-benzo[d][1,3]diazepin-3-yl)-piperidin-1-yl]-2-oxo-ethyl}-2,6-dioxo-3,6-dihydro-2H-pyrimidin-1-yl)-propyl]-propionamide] |
| 0 | COC[C@H](C)n1c(=O)c(-c2cccc(F)c2Cl)cn(CC(=O)Nc2ccc3c(c2)C[C@@]2(C3)C(=O)Nc3ncccc32)c1=O [Compound 165] |
| 18 | COc1cccc(C2=CN(CC(=O)N3CCC(N4CCc5ccccc5NC4=O)CC3)C(=O)N(C(C)C)C2)c1Cl [Compound 193, 3-(1-{2-[5-(2-chloro-3-methoxyphenyl)-3-isopropyl-2-oxo-3,4-dihydro-2H-pyrimidin-1-yl]-acetyl}-piperidin-4-yl)-1,3,4,5-tetrahydro-benzo[d][1,3]diazepin-2-one] |
| 1 | COc1ccc2c(c1)CCN(C1CCN(C(=O)Cn3cc(-c4cccc(OC)c4Cl)c(=O)n([C@@H](C)CNC(C)=O)c3=O)CC1)C(=O)N2 [Compound 206, N—[(S)-2-(5-(2-chloro-3-methoxyphenyl)-3-{2-[4-(7-methoxy-2-oxo-1,2,4,5-tetrahydro-benzo[d][1,3]diazepin-3-yl)-piperidin-1-yl]-2-oxo-ethyl}-2,6-dioxo-3,6-dihydro-2H-pyrimidin-1-yl)-propyl]acetamide] |
| 1 | COCC(COC)n1c(=O)c(-c2cccc(F)c2Cl)cn(CC(=O)N2CCC(N3CCc4cc(OC)ccc4NC3=O)CC2)c1=O [Compound 232, 5-(2-chloro-3-fluorophenyl)-3-[2-methoxy-1-(methoxymethyl)ethyl]-1-[2-[4-(7-methoxy-2-oxo-4,5-dihydro-1H-1,3-benzodiazepin-3-yl)-1-piperidyl]-2-oxo-ethyl]pyrimidine-2,4-dione] |
| 3 | CC[C@H](C)n1c(=O)c(-c2cccc(F)c2Cl)cn(CC(=O)N2CCC(N3CCc4cc(OC)ccc4NC3=O)CC2)c1=O [Compound 237, 5-(2-chloro-3-fluorophenyl)-1-[2-[4-(7-methoxy-2-oxo-4,5-dihydro-1H-1,3-benzodiazepin-3-yl)-1-piperidyl]-2-oxo-ethyl]-3-[(1S)-1-methylpropyl]pyrimidine-2,4-dione] |
| 0 | COc1ccc2c(c1)CCN(C1CCN(C(=O)Cn3cc(-c4cccc(F)c4Cl)c(=O)n(CC(C)(C)OC)c3=O)CC1)C(=O)N2 [Compound 240, 5-(2-chloro-3-fluorophenyl)-3-(2-methoxy-2-methylpropyl)-1-[2-[4-(7-methoxy-2-oxo-4,5-dihydro-1H-1,3-benzodiazepin-3-yl)-1-piperidyl]-2-oxo-ethyl]pyrimidine-2,4-dione] |
| 4 | COc1ccc2c(c1)CCN(C1CCN(C(=O)Cn3cc(-c4cccc(F)c4Cl)c(=O)n(CCn4cnnc4)c3=O)CC1)C(=O)N2 [Compound 251, 5-(2-chloro-3-fluorophenyl)-1-[2-[4-(7-methoxy-2-oxo-4,5-dihydro-1H-1,3-benzodiazepin-3-yl)-1-piperidyl]-2-oxo-ethyl]-3-[2-(1,2,4-triazol-4-yl)ethyl]pyrimidine-2,4-dione] |
| 100 | O=C(CN1C(=O)C2(CCCC2)NC[C@H]1c1cc(F)cc(F)c1)Nc1ccc2c(c1)C[C@@]1(C2)C(=O)Nc2ncccc21 [MK-3207, reference compound] |
| 100 | NCCCC[C@H](NC(=O)[C@@H](Cc1cc(Br)c(O)c(Br)c1)NC(=O)N1CCC(N2Cc3ccccc3NC2=O)CC1)C(=O)N1CCN(c2ccncc2)CC1 [Olcegepant, olcegepant, reference compound] |
| 100 | O=C(N[C@@H]1CC[C@@H](c2cccc(F)c2F)CN(CC(F)(F)F)C1=O)N1CCC(n2c(=O)[nH]c3ncccc32)CC1 [Telcagepant, telcagepant, reference compound] |
